# Laboratory results published in article PMC6061700 (Toxicological Sciences, 2018).
# Read-outs that look alike come from different tables or passages of the source. Marks after values point to notes of the source that are not given here.
# Columns and labels:
# [1] = test system: Axiogenesis [AXG] human stem cell-derived cardiomyocytes; conditions: for EAD occurrence (proportion of replicates exhibiting EADs): AXG; for FPDc20 concentration (20% increase in FPDc): human
# [2] = test system: human induced pluripotent stem cell-derived cardiomyocytes (hiPSC-CMs)
# [3] = free clinical Cmax; ref Kramer et al. (2013); cited from earlier work
# [4] = test system: Cellular Dynamics International [CDI] human stem cell-derived cardiomyocytes
# [5] = test system: Stanford Cardiovascular Institute [SCI] human stem cell-derived cardiomyocytes; conditions: for EAD occurrence (proportion of replicates exhibiting EADs): study 10, SCI, AXN
# [6] = 20% increase in FPDc, median across qualified studies
smiles,measurement,setting,value
C=C[C@H]1C[N@@]2CC[C@H]1C[C@@H]2[C@@H](O)c1ccnc2ccc(OC)cc12 [Quinidine],EAD occurrence (proportion of replicates exhibiting EADs),"[1]; study 1, AXN, 10 µM",3/3
same,EAD occurrence (proportion of replicates exhibiting EADs),"[1]; study 2, AXN, 10 µM",2/3
same,EAD occurrence (proportion of replicates exhibiting EADs),"[1]; study 4, MCS, 10 µM",3/3
same,FPDc20: median,[2]; [6],1 µM
same,FPDc20: span,"[2]; 20% increase in FPDc, span across qualified studies",1 log unit
same,Free Drug (free Cmax),[3],3.237* µM
same,EAD occurrence (proportion of replicates exhibiting EADs),"[4]; study 5, CDI, AXN, 10 µM",2/3
same,EAD occurrence (proportion of replicates exhibiting EADs),"[4]; study 6, CDI, AXN, 1 µM",3/3
same,EAD occurrence (proportion of replicates exhibiting EADs),"[4]; study 6, CDI, AXN, 3 µM",3/3
same,EAD occurrence (proportion of replicates exhibiting EADs),"[4]; study 7, CDI, MCS, 3 µM",1/3
same,EAD occurrence (proportion of replicates exhibiting EADs),"[4]; study 7, CDI, MCS, 10 µM",3/3
same,EAD occurrence (proportion of replicates exhibiting EADs),"[4]; study 8, CDI, MCS, 10 µM",4/4
same,EAD occurrence (proportion of replicates exhibiting EADs),"[4]; study 9, CDI, ACA, 1 µM",1/3
same,EAD occurrence (proportion of replicates exhibiting EADs),"[4]; study 9, CDI, ACA, 3 µM",3/3
same,EAD occurrence (proportion of replicates exhibiting EADs),"[4]; study 9, CDI, ACA, 10 µM",2/3
same,FPDc20 concentration (20% increase in FPDc),[5]; human,1 µM
same,EAD occurrence (proportion of replicates exhibiting EADs),[5]; 1 µM,2/3
same,EAD occurrence (proportion of replicates exhibiting EADs),[5]; 3 µM,3/3
O=C(NCC1CCCCN1)c1cc(OCC(F)(F)F)ccc1OCC(F)(F)F (stereo not shown) [Flecainide],EAD occurrence (proportion of replicates exhibiting EADs),"[1]; study 4, MCS, 3 µM",1/3
same,FPDc20: median,[2]; [6],1 µM
same,EAD occurrence (proportion of replicates exhibiting EADs),"[4]; study 5, CDI, AXN, 1 µM",2/4
same,EAD occurrence (proportion of replicates exhibiting EADs),"[4]; study 5, CDI, AXN, 3 µM",1/4
same,EAD occurrence (proportion of replicates exhibiting EADs),"[4]; study 6, CDI, AXN, 1 µM",1/3
same,EAD occurrence (proportion of replicates exhibiting EADs),"[4]; study 6, CDI, AXN, 3 µM",1/3
same,EAD occurrence (proportion of replicates exhibiting EADs),"[4]; study 7, CDI, MCS, 3 µM",3/3
same,EAD occurrence (proportion of replicates exhibiting EADs),"[4]; study 8, CDI, MCS, 3 µM",4/4
same,EAD occurrence (proportion of replicates exhibiting EADs),"[4]; study 9, CDI, ACA, 3 µM",3/3
same,FPDc20 concentration (20% increase in FPDc),[5]; human,1 µM
same,EAD occurrence (proportion of replicates exhibiting EADs),[5]; 1 µM,1/3
same,EAD occurrence (proportion of replicates exhibiting EADs),[5]; 3 µM,2/3
COc1c(N2C[C@@H]3CCCN[C@@H]3C2)c(F)cc2c(=O)c(C(=O)O)cn(C3CC3)c12 [Moxifloxacin],FPDc20 concentration (20% increase in FPDc),[1],100 µM
same,FPDc20: median,[2]; [6],100 µM
same,Free Drug (free Cmax),[3],10.96* µM
same,EAD occurrence (proportion of replicates exhibiting EADs),"[4]; study 6, CDI, AXN, 100 µM",3/3
same,EAD occurrence (proportion of replicates exhibiting EADs),"[4]; study 9, CDI, ACA, 30 µM",1/3
same,EAD occurrence (proportion of replicates exhibiting EADs),"[4]; study 9, CDI, ACA, 100 µM",2/3
same,FPDc20 concentration (20% increase in FPDc),[5]; human,30 µM
same,EAD occurrence (proportion of replicates exhibiting EADs),[5]; 30 µM,1/3
same,EAD occurrence (proportion of replicates exhibiting EADs),[5]; 100 µM,2/3
COc1ccccc1OCC(O)CN1CCN(CC(=O)Nc2c(C)cccc2C)CC1 (stereo not shown) [Ranolazine],EAD occurrence (proportion of replicates exhibiting EADs),"[1]; study 4, MCS, 30 µM",3/4
same,FPDc20: median,[2]; [6],10 µM
same,EAD occurrence (proportion of replicates exhibiting EADs),"[4]; study 6, CDI, AXN, 10 µM",3/3
same,EAD occurrence (proportion of replicates exhibiting EADs),"[4]; study 6, CDI, AXN, 30 µM",3/3
same,EAD occurrence (proportion of replicates exhibiting EADs),"[4]; study 7, CDI, MCS, 30 µM",3/3
same,EAD occurrence (proportion of replicates exhibiting EADs),"[4]; study 8, CDI, MCS, 30 µM",5/5
same,EAD occurrence (proportion of replicates exhibiting EADs),"[4]; study 9, CDI, ACA, 10 µM",3/3
same,EAD occurrence (proportion of replicates exhibiting EADs),"[4]; study 9, CDI, ACA, 30 µM",2/3
same,FPDc20 concentration (20% increase in FPDc),[5]; human,10 µM
same,EAD occurrence (proportion of replicates exhibiting EADs),[5]; 10 µM,1/3
same,EAD occurrence (proportion of replicates exhibiting EADs),[5]; 30 µM,2/3
COC(=O)C1=C(C)NC(C)=C(C(=O)OC)C1c1ccccc1[N+](=O)[O-] [Nifedipine],EAD occurrence,[2],No EADs
same,FPDc20: median,[2]; human,0.1 µM
same,FPDc20: span,[2]; human,0.5 log unit
same,FPDc20 concentration (20% decrease in FPDc),[5]; human,0.3 µM
Cc1cccc(C)c1OCC(C)N (stereo not shown) [Mexiletine],FPDc20 concentration (20% increase in FPDc),[1],30 µM
same,FPDc20: median,[2]; human,30 µM
same,FPDc20: span,[2]; human,0.5 log unit
same,studies in which FPDc20 was detected,[2]; human,3 of 8
same,EAD occurrence (proportion of replicates exhibiting EADs),[4]; human,3/3
CC(C)(Oc1ccc(Cl)cc1)C(=O)NC1C2CC3CC1CC(NS(C)(=O)=O)(C3)C2 (stereo not shown) [JNJ303],EAD occurrence,"[2]; across all studies, any concentration",No EADs
same,prolongation of FPD and FPDc,"[4]; single example study, CDI myocytes, highest concentration tested (300 nM)",~10%
